The results in this text go back to PubChem BioAssay (NCI).

Some test systems named below: SK-MEL-5 melanoma; PC-3 prostate; HCC-2998 colon; HS 578T breast; U251 CNS; MDA-MB-231 breast; HT29 colon; SF-268 CNS; TK-10 renal; SNB-75 CNS.
Common to all, as to assay: NCI-60 cell line screen, 48 h

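Test compounds were applied to cells in 96-well plates for 48 hours at 5 doses. Abbreviation: GI50, concentration required for 50% inhibition of growth. TGI marks complete inhibition of growth.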

As to `CC(C)(C)N1CCC1CN` (stereo not given), the GI50 in the assay on SK-MEL-5 melanoma, with PC-3 prostate, in the assay on HCC-2998 colon, with HS 578T breast, in the assay with U251 CNS and with MDA-MB-231 breast was more than 100 µM throughout. The GI50 with HT29 colon, in the assay on SF-268 CNS, in the assay on TK-10 renal and in the assay on SNB-75 CNS was more than 100 µM in each case. The TGI in the assay on SK-MEL-5 melanoma, in the assay on PC-3 prostate, in the assay on HCC-2998 colon, in the assay on HS 578T breast, with U251 CNS and with MDA-MB-231 breast was more than 100 µM throughout. Besides, the TGI in the assay on HT29 colon, in the assay with SF-268 CNS, in the assay with TK-10 renal and in the assay on SNB-75 CNS was more than 100 µM each time.

As for `CSC1=Nc2c(c(C)c(-c3ccccc3)n2CCCN2CCCCC2)C2=NC(=O)C[C@H](C)N12`, the GI50 in the assay on SK-MEL-5 melanoma was 1.99 µM; in the assay on PC-3 prostate, 2.01 µM; in the assay with HCC-2998 colon, 3.18 µM; with HS 578T breast it was 2.04 µM; in the assay on U251 CNS, 2.71 µM; in the assay on MDA-MB-231 breast, 2.59 µM. Moreover, the GI50 with HT29 colon was 2.38 µM; in the assay with SF-268 CNS it was 3.96 µM; in the assay on TK-10 renal, 3.98 µM; with SNB-75 CNS, 4.98 µM. Moreover, the TGI in the assay on SK-MEL-5 melanoma is 4.64 µM; with PC-3 prostate, 10.1 µM; with HCC-2998 colon it was 12.7 µM; in the assay with HS 578T breast, 10.4 µM; in the assay on U251 CNS it was 17.7 µM; in the assay on MDA-MB-231 breast, more than 30.9 µM. Also, the TGI was 10.9 µM with HT29 colon, 21.9 µM in the assay on SF-268 CNS, more than 30.6 µM with TK-10 renal and 32 µM in the assay on SNB-75 CNS.

Consider `O=C(c1ccco1)c1nc2cc(C(F)(F)F)ccc2nc1C(F)(F)F`, for which the GI50 in the assay on SK-MEL-5 melanoma is more than 100 µM; with PC-3 prostate it was more than 100 µM; in the assay on HCC-2998 colon, more than 100 µM; in the assay on HS 578T breast, more than 100 µM; in the assay with U251 CNS, more than 100 µM; in the assay on MDA-MB-231 breast, 99.1 µM. Also, the GI50 with HT29 colon is more than 100 µM; in the assay on SF-268 CNS it was more than 100 µM; in the assay on TK-10 renal, more than 100 µM; in the assay on SNB-75 CNS, 18.9 µM. The TGI in the assay on SK-MEL-5 melanoma, with PC-3 prostate, with HCC-2998 colon, in the assay with HS 578T breast, with U251 CNS and in the assay with MDA-MB-231 breast was more than 100 µM each time. The TGI in the assay with HT29 colon was more than 100 µM; in the assay on SF-268 CNS, more than 100 µM; with TK-10 renal it was more than 100 µM; with SNB-75 CNS, 62.7 µM.

As for `O=C(COc1ccc(/C=C2\COc3ccccc3C2=O)cc1)Nc1nccs1`, the GI50 with SK-MEL-5 melanoma is 12.8 µM; in the assay with PC-3 prostate, 3.95 µM; in the assay with HCC-2998 colon, 0.828 µM; with HS 578T breast, 2.74 µM; in the assay on U251 CNS, 6.29 µM; in the assay on MDA-MB-231 breast it was 17.8 µM. Also, the GI50 in the assay with HT29 colon was 3.7 µM; in the assay with SF-268 CNS it was 6.81 µM; in the assay on TK-10 renal it was 28.7 µM; with SNB-75 CNS, 5.04 µM. Besides, the TGI in the assay with SK-MEL-5 melanoma worked out at 26.7 µM; in the assay with PC-3 prostate it was 28.5 µM; in the assay with HCC-2998 colon it was 3.26 µM; in the assay with HS 578T breast it was 9.4 µM; in the assay with U251 CNS it was 19.1 µM; in the assay with MDA-MB-231 breast, 60 µM. Moreover, the TGI with HT29 colon was 12.9 µM; in the assay on SF-268 CNS, 21.7 µM; in the assay on TK-10 renal, 58.5 µM; in the assay with SNB-75 CNS it was 22 µM.

As for `CC[C@@H]1[C@@H](C)O[C@@](O)([C@@H](C)[C@H](O)[C@H](C)[C@H]2OC(=O)/C=C/C=C/[C@H](C)[C@@H]([C@@H](C)[C@@H](O)[C@H](C)[C@@]3(O)C[C@@H](O[C@H]4C[C@@H](O)[C@H](O)C(C)O4)[C@H](CC)[C@@H](C)O3)OC(=O)/C=C/C=C/[C@@H]2C)C[C@H]1O[C@@H]1C[C@@H](O)[C@H](O)C(C)O1` (stereo not given in full), the GI50 with SK-MEL-5 melanoma was 0.0531 µM; in the assay on PC-3 prostate, 0.0568 µM; in the assay on HCC-2998 colon, 0.097 µM; with HS 578T breast, 0.0798 µM; with U251 CNS it was 0.113 µM; with MDA-MB-231 breast it was 0.0586 µM. Further, the GI50 in the assay with HT29 colon is 0.109 µM; with SF-268 CNS, 0.0698 µM; with TK-10 renal, 0.0746 µM; in the assay with SNB-75 CNS, 0.0495 µM. For the same compound, the TGI turned out to be 0.0992 µM in the assay with SK-MEL-5 melanoma; 0.147 µM with PC-3 prostate; 0.262 µM in the assay with HCC-2998 colon; 0.253 µM in the assay on HS 578T breast; 0.39 µM in the assay on U251 CNS; 0.139 µM with MDA-MB-231 breast. For the same compound, the TGI in the assay on HT29 colon was determined as 0.389 µM; in the assay on SF-268 CNS it was 0.175 µM; in the assay with TK-10 renal it was 0.212 µM; in the assay on SNB-75 CNS, 0.149 µM.

On to `CN1CCC(COc2cnc(-c3cccc(Cn4nc(-c5cccc(C#N)c5)ccc4=O)c3)nc2)CC1`, for which the GI50 in the assay on SK-MEL-5 melanoma is 1.49 µM; in the assay on PC-3 prostate it was 6.7 µM; in the assay on HCC-2998 colon, 6.34 µM; in the assay with HS 578T breast, 4.63 µM; in the assay with U251 CNS it was 2.43 µM; with MDA-MB-231 breast it was 2 µM. Besides, the GI50 with HT29 colon is 2.04 µM; in the assay on SF-268 CNS, 3.81 µM; with TK-10 renal, 2.65 µM; with SNB-75 CNS it was 1.81 µM. Moreover, the TGI in the assay on SK-MEL-5 melanoma is 2.85 µM; in the assay on PC-3 prostate, 31.8 µM; in the assay on HCC-2998 colon, 18.7 µM; in the assay on HS 578T breast, 19.8 µM; in the assay on U251 CNS, 7.68 µM; in the assay with MDA-MB-231 breast it was 4.43 µM. Further, the TGI was found to be 4.66 µM in the assay with HT29 colon, 16.4 µM with SF-268 CNS, 6.15 µM in the assay with TK-10 renal and 5.28 µM in the assay on SNB-75 CNS.

Take `NS(=O)(=O)OCC1OC(n2cnc3cncnc32)C(O)C1O` (stereo not given): the GI50 is 0.0402 µM with SK-MEL-5 melanoma; 0.0312 µM with PC-3 prostate; 0.0312 µM with HCC-2998 colon; 0.0592 µM in the assay on HS 578T breast; 0.022 µM in the assay on U251 CNS; 0.0101 µM in the assay with MDA-MB-231 breast. The GI50 in the assay with HT29 colon was 0.0275 µM; with SF-268 CNS, 0.0267 µM; in the assay with TK-10 renal, 0.0214 µM; in the assay with SNB-75 CNS, 0.0309 µM. The TGI in the assay on SK-MEL-5 melanoma was 0.144 µM; in the assay with PC-3 prostate, 0.237 µM; in the assay with HCC-2998 colon, 0.097 µM; in the assay on HS 578T breast it was 0.932 µM; in the assay with U251 CNS it was 0.0749 µM; in the assay on MDA-MB-231 breast it was 0.0376 µM. The TGI with HT29 colon amounted to 0.105 µM; with SF-268 CNS it was 0.279 µM; in the assay with TK-10 renal, 0.0713 µM; in the assay with SNB-75 CNS, 0.4 µM.
